Measurements from article PMC9295568, “Dual Inhibition of Vacuolar-ATPase and TMPRSS2 Is Required for Complete Blockade of SARS-CoV-2 Entry into Cells” (Antimicrobial Agents and Chemotherapy, 2022).
Like-named read-outs stand apart in the source and are kept apart here.

How the values were obtained:
Type in all cases: cell-based
SARS-CoV-2 PsV D614G [1] = conditions: read-out: IC50, inhibition of PsV entry
SARS-CoV-2 PsV D614G [2] = conditions: read-out: IC50, inhibition of PsV entry; remark: listed apart in the source
[3] = test system: SARS-CoV-2 PsV B.1.1.529 (Omicron); experiment: microbe, parasite or virus in culture; conditions: Omicron variant, Vero-TMPRSS2 cells

CN(C)C(=O)COC(=O)Cc1ccc(OC(=O)c2ccc(NC(=N)N)cc2)cc1 [Camostat]
IC50 (SARS-CoV-2 PsV D614G [1]): > 300 µM | IC50 (SARS-CoV-2 PsV D614G [2]): 199 nM | inhibition of PsV entry (in words) [3]: unable to inhibit
